# Test results: patent US20040224958A1, “Pyridopyrimidinone derivatives for treatment of neurodegenerative disease” (priority 2000, published 2004)
# Target: cdc2/cyclinB (Homo sapiens, UniProt P06493)
# Test: Cyclin-Dependent Kinase Assay cdc2/cyclinB
# Details: not given
# Sequence of cdc2/cyclinB (P06493 whole entry): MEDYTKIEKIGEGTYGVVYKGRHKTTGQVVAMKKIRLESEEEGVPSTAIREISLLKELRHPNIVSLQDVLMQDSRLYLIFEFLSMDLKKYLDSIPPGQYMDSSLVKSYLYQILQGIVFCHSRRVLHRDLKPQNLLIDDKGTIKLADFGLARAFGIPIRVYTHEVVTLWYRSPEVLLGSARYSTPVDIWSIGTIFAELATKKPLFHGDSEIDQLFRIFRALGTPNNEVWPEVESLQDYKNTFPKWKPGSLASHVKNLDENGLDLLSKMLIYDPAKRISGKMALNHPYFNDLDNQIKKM
# Sequence of cdc2/cyclinB (P14635 whole entry, further chain): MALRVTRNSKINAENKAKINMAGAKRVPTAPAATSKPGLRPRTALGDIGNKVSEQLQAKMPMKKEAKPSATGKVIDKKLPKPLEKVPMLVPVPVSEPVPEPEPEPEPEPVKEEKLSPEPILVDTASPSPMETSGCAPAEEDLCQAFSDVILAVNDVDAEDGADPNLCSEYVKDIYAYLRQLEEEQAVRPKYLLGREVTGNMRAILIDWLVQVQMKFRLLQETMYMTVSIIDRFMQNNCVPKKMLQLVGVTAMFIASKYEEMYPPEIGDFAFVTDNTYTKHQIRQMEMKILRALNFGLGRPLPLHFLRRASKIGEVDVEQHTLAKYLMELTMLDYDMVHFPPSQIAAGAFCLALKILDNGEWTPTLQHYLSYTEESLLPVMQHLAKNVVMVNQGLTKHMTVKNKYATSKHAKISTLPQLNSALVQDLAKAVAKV
row,IC50,Molecule
1,2500 nM,"O=c1ccc2cnc(Nc3ccc4c(c3)CCN4)nc2n1C1CCCC1 [Example 553, 8-Cyclopentyl-2-(2,3-dihydro-1H-indol-5-ylamino)-8H-pyrido[2,3-d]pyrimidin-7-one]"
2,1600 nM,"O=c1ccc2cnc(Nc3ccc4c(c3)CCN4)nc2n1CC1CC1 [Example 581, 8-Cyclopropylmethyl-2-(2,3-dihydro-1H-indol-5-ylamino)-8H-pyrido[2,3-d]pyrimidin-7-one]"

# Target: cdk4/D (Homo sapiens, UniProt P11802)
# Sequence (P11802 whole entry): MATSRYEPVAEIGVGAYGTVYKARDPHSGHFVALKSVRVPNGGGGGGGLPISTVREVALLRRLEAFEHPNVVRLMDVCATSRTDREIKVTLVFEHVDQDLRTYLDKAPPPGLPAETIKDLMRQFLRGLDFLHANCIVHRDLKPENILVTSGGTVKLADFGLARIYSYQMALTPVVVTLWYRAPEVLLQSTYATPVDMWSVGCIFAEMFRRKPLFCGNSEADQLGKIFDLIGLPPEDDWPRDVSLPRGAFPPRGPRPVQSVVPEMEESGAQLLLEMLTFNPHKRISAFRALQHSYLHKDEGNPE
# Sequence (P24385 whole entry, further chain): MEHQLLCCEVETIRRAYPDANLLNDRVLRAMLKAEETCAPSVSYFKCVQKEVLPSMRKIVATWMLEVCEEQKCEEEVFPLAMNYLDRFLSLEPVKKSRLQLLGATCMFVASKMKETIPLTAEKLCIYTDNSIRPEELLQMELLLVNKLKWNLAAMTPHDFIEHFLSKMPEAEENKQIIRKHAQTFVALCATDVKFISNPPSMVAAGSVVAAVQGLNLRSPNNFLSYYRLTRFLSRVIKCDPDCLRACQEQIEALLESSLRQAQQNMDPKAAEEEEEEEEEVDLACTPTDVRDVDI
# Test: Cyclin-Dependent Kinase 4 (cdk4) Assay
# Assay type: biochemical
# Details: Table 1; read-out: cdk4/D IC50
# Protocol: A typical assay, for instance, measures inhibitory activity against the cyclin D dependent kinase 4 enzyme (cdk4/D). […] The cdk4 assay was carried out as follows.
# Cyclin-Dependent Kinase 4 (cdk4) Assay
# All components except the ATP were added to the wells, and the plate was placed on a plate mixer for 2 minutes. The reaction was started by adding [^32P]ATP and the plate was incubated at 25° C. for 15 minutes. The reaction was terminated by addition of 0.1 mL of 20% trichloroacetic acid (TCA). The plate was kept at 4° C. for at least 1 hour to allow the substrate to precipitate. The wells were then washed five times with 0.2 mL of 10% TCA and ^32P incorporation was determined with a beta plate counter (Wallac Inc., Gaithersburg, Md.).
row,Molecule,IC50
1,"CCn1c(=O)ccc2cnc(Nc3ccccc3OCc3ccccc3)nc21 [Example 56, 2-Benzyloxyphenylamino-8-ethyl-8H-pyrido[2,3-d]pyrimidin-7-one]",25000 nM

# Same assay, conditions: Table 2, Formula II compounds; read-out: cdk4 IC50
row,Molecule,IC50
1,"CCNc1nc(Nc2ccccc2)ncc1C=CC(=O)OCC [Example 17, Ethyl 3-(4-Ethylamino-2-phenylamino-pyrimidin-5-yl)acrylate]",2000 nM

# Same assay, conditions: read-out: cdk4/D IC50
row,IC50,Molecule
1,1900 nM,"CCCn1c(=O)ccc2cnc(Nc3ccc(OC(F)(F)F)c(Br)c3)nc21 [Example 363, 2-(3-Bromo-4-trifluoromethoi-phenylamino)-8-propyl-8H-pyrido[2,3-d]pyrimidin-7-one]"
2,3200 nM,"CC(C)n1c(=O)ccc2cnc(Nc3ccc4c(c3)CCN4)nc21 [Example 437, 2-(2,3-Dihydro-1H-indol-5-ylamino)-8-isopropyl-8H-pyrido[2,3-d]pyrimidin-7-one]"
3,2800 nM,"CCn1c(=O)ccc2cnc(Nc3ccc(C)c(NS(C)(=O)=O)c3)nc21 [Example 307, N-[5-(8-Ethyl-7-oxo-7,8-dihydro-pyrido[2,3-d]pyrimidin-2-ylamino)-2-methyl-phenyl]-methanesulfonamide]"
4,2700 nM,"CC(=O)Nc1ccc(Nc2ncc3ccc(=O)n(C(C)C)c3n2)cc1C#N [Example 445, N-[2-Cyano-4-(8-isopropyl-7-oxo-7,8-dihydro-pyrido[2,3-d]pyrimidin-2-ylamino)-phenyl]-acetamide]"
5,99 nM,"O=c1ccc2cnc(Nc3ccc4c(c3)CCN4)nc2n1C1CCCC1 [Example 553, 8-Cyclopentyl-2-(2,3-dihydro-1H-indol-5-ylamino)-8H-pyrido[2,3-d]pyrimidin-7-one]"
6,3200 nM,"CCn1c(=O)ccc2cnc(Nc3ccc(NC(C)=O)c(C#N)c3)nc21 [Example 308, N-[2-Cyano-4-(8-ethyl-7-oxo-7,8-dihydro-pyrido[2,3-d]pyrimidin-2-ylamino)-phenyl]-acetamide]"
7,420 nM,"O=c1ccc2cnc(Nc3ccc4c(c3)CCN4)nc2n1CC1CC1 [Example 581, 8-Cyclopropylmethyl-2-(2,3-dihydro-1H-indol-5-ylamino)-8H-pyrido[2,3-d]pyrimidin-7-one]"
8,1300 nM,"CCC(C)n1c(=O)ccc2cnc(Nc3ccc(C)c(Br)c3)nc21 (centres unmarked) [Example 478, 2-(3-Bromo-4-methyl-phenylamino)-8-sec-butyl-8H-pyrido[2,3-d]pyrimidin-7-one]"
9,1700 nM,"CCC(C)n1c(=O)ccc2cnc(Nc3ccc(Br)c(C)c3)nc21 (centres unmarked) [Example 479, 2-(4-Bromo-3-methyl-phenylamino)-8-sec-butyl-8H-pyrido[2,3-d]pyrimidin-7-one]"
10,3600 nM,"CCn1c(=O)ccc2cnc(Nc3ccc(OC(F)(F)F)c(Br)c3)nc21 [Example 306, 2-(3-Bromo-4-trifluoromethoxy-phenylamino)-8-ethyl-8H-pyrido[2,3-d]pyrimidin-7-one]"
11,2900 nM,"CCC(C)n1c(=O)ccc2cnc(Nc3ccc(C)c(NS(C)(=O)=O)c3)nc21 (centres unmarked) [Example 480, N-[5-(8-sec-Butyl-7-oxo-7,8-dihydro-pyrido[2,3-d]pyrimidin-2-ylamino)-2-methyl-phenyl]-methanesulfonamide]"
12,3100 nM,"CCCCn1c(=O)ccc2cnc(Nc3ccc(C)c(NS(C)(=O)=O)c3)nc21 [Example 405, N-[5-(8-Butyl-7-oxo-7,8-dihydro-pyrido[2,3-d]pyrimidin-2-ylamino)-2-methyl-phenyl]-methanesulfonamide]"

row,Molecule,IC50
1,"8-Butyl-2-(2-fluoro-4-nitro-phenylamino)-8H-pyrido[2,3-d]pyrimidin-7-one [Example 367]",2300 nM
